The METLIN SMRT retention time set (Domingo-Almenara et al. 2019)

test: gradient 5% acetonitrile 3 min, to 50% in 2 min, to 85% in 15 min, held 3 min, 100 µL/min; conditions: column: Zorbax Extend-C18 2.1 x 50 mm; eluents: water / acetonitrile, 0.1% formic acid
How it was run: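 Data were gathered over 3 months by HPLC coupled to a quadrupole time-of-flight mass spectrometer, operated in positive and negative ionization mode. Mixtures of ~100 pure standards ran on a Zorbax Extend-C18 column (2.1 × 50 mm, 1.8 μm) at 100 μL/min, with water and acetonitrile each containing 0.1% formic acid and dead and dwell volumes of 40 μL and 900 μL. Retention time was read from adduct peaks picked by computer and checked manually.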

RP-LC retention time | Compound
644 s | CCc1ccc(S(=O)(=O)NCC(c2cccs2)N2CCOCC2)s1 (stereo not drawn)
910 s | CCc1ccc(Nc2nc(C(=O)N3CCCCCC3)nc3ccccc23)cc1
939 s | CC1CCCN(C(=O)c2cn(-c3ccc(S(=O)(=O)N4CCCC(C)C4)cn3)cn2)C1 (stereo not drawn)
721 s | CCn1ccc2c(cc(C(=O)Nc3ccc4c(c3)OCCO4)n2C)c1=O
775 s | Cn1ncc2c3ccccc3n(CCCC(=O)NCCc3ccco3)c2c1=O
874 s | CC(C)[C@@H](C(=O)NCCc1c[nH]c2ccc(F)cc12)n1nnc2ccccc2c1=O
615 s | Cn1c(=O)n(CCN2CCOCC2)c(=O)c2c1nc1n2CCCN1c1ccccc1
820 s | O=C(Nc1cnc(N2CCOCC2)nc1)c1ccc(F)c(Cl)c1
600 s | Cc1cnc(C2CN(CC3CCCCC3)C2)n1Cc1ccccc1
590 s | Cc1ccc(-n2nc3c(N4CCN(C(=O)NCC5CCCO5)CC4)nnc(C)c3c2C)cc1 (stereo not drawn)
736 s | Cc1c(Cl)cccc1NC(=O)N1CCC(c2cc(N)on2)CC1
1150 s | Cc1ccc(Sc2nccnc2N2CCC(C(=O)NCc3ccccc3C)CC2)cc1
773 s | CC(C)C(=O)Nc1ccc(-n2cnc(C(=O)NCc3ccc(F)cc3F)c2)nc1
534 s | CCn1cnnc1C1CCN(C(=O)c2ccc3c(c2)OCO3)CC1
809 s | Cc1ccc(S(=O)(=O)N2CCC(n3cnnc3C3CC3)CC2)cc1Cl
711 s | COc1cc(NC(=O)N2CCC(c3nc(C(=O)N(C)C)c(C)o3)CC2)cc(OC)c1
808 s | Cc1ccc(NC(=O)C2CCCN2S(=O)(=O)c2cc3c(cc2C)NC(=O)CO3)cc1F (stereo not drawn)
824 s | Cc1csc(-c2cc(S(=O)(=O)N3CCOCC3)c(C)n2C)n1
662 s | CCc1cccc(C)c1NC(=O)CSc1ccc(N2CCCC(C(=O)NC3CC3)C2)nn1 (stereo not drawn)
582 s | CO[C@H]1C(=O)N(C2CCN(C(=O)Nc3ccc4c(c3)OCCO4)CC2)[C@H]1c1ccncc1
825 s | Cc1[nH]c(C(=O)N2CCC(CC(=O)NC3CCCCC3)CC2)c(C)c1C(=O)OC(C)C
802 s | Cc1ccc(Nc2c(-c3ccc(C)cc3)nc3ncccn23)cc1

RP-LC retention time | Compound
1010 s | CC1CCN(S(=O)(=O)c2ccc3c(c2)CCCC(=O)N3CC(=O)N2CCc3ccccc3C2)CC1
790 s | CCN1CCCn2cc(S(=O)(=O)Nc3ccc(Cl)cc3C)cc2C1=O
940 s | Cc1ccc(C(=O)N2CCCC(COc3ccc(C(=O)N4CCCC4)cc3)C2)cc1C (stereo not drawn)
628 s | CCCN1CCN(C(=O)CN2C(=O)C3CCCCN3c3ccc(S(=O)(=O)N(C)C)cc32)CC1 (stereo not drawn)
878 s | Cc1ccc(CNC(=O)C2(C)CCCN(C(=O)NCc3ccccc3)C2)cc1 (stereo not drawn)
568 s | O=C(NCc1ccco1)N1CCOCC1
758 s | COc1cccc(CCNC(=O)C2CCCN(c3ncnc4c3nc3n4CCCCC3)C2)c1OC (stereo not drawn)
1080 s | O=C(NCc1ccccc1)C1CCCN(S(=O)(=O)c2cc(-c3noc(C4CCC4)n3)cs2)C1 (stereo not drawn)
830 s | O=C(C1CC1)N1CCc2ccc(NS(=O)(=O)C3CCCCC3)cc21
584 s | COc1ccc2nc(Nc3nc(-c4ccncc4)cs3)sc2c1
768 s | CCn1cnc(S(=O)(=O)N2CCCC(C(=O)NCc3ccccc3)C2)c1 (stereo not drawn)
759 s | COc1ccc(C)cc1NC(=O)NCCNC(=O)c1ccc(NC(=O)C2CCCC2)cc1
813 s | Cn1c(=O)sc2cc(S(=O)(=O)N3CCC(C(=O)NCCc4cccs4)CC3)ccc21
707 s | CCN(CC)CCCNc1ccc(-c2nc(-c3cccc(F)c3)no2)cn1
698 s | CC(C)Cn1c(CCNC(=O)c2ccccc2F)nc2cccnc21
942 s | CCn1cc(-c2nc(CC(=O)Nc3cccc(Cl)c3)cs2)c2cccnc21
702 s | Cc1cc2c(N3CCCC(C(=O)NCc4ccc(Br)cc4)C3)nccc2s1 (stereo not drawn)
643 s | O=C(C1CC=CC1)N1CCC2(CC1)NCCc1c2[nH]c2ccccc12
872 s | Cc1nc2cc(-c3noc(-c4ccc(Cl)cc4)n3)ccc2n(C)c1=O
917 s | Cc1ccc(F)c(-n2nnc(C(=O)O)c2-c2ccccn2)c1
661 s | CC(=O)Nc1nsc(N2CCC(C(=O)NCc3cc(F)cc(F)c3)CC2)n1
798 s | Cc1cc(Cl)ccc1NC(=O)c1cccn1-c1cccnc1

RP-LC retention time | Compound
834 s | CC(=O)NCc1ccc(-c2noc(Cc3c(F)cccc3Cl)n2)s1
637 s | Cc1cc(C(=O)NCc2ccc3c(c2)OCO3)c2ccccc2n1
1030 s | COc1ccccc1CNC(=O)c1sc(-c2cn(C(C)C)c3ncccc23)nc1C
823 s | O=C(Nc1ccc2c(c1)CN(C(=O)C1COc3ccccc3O1)CCO2)C1CC1 (stereo not drawn)
756 s | CCCNC(=O)C1CCN(c2nc3ccsc3c(=O)n2Cc2ccccc2)CC1
1240 s | COc1cccc(C2Cn3nnc(-c4nc(-c5ccc(Br)cc5)no4)c3CO2)c1 (stereo not drawn)
568 s | CC(C)N(CC#CCNS(=O)(=O)c1ccc(Cl)cc1)C(C)C
657 s | Cc1ccc(-c2cc(C(=O)NCCN(C)C)n(C)c2)cc1
656 s | CCN1CCC(N(Cc2ccc3c(c2)OCO3)C(=O)Nc2ccc(F)cc2)CC1
912 s | O=C(Nc1ccccc1)c1cccc(N2CC(C(=O)Nc3cccc(Cl)c3)CC2=O)c1 (stereo not drawn)
853 s | O=C(c1ccco1)N1CCCC1c1nc(-c2ccccc2)no1 (stereo not drawn)
785 s | Cc1cc(S(=O)(=O)N2CC(Cc3nncn3C3CCCC3)C2)ccc1Cl
849 s | O=C(CCn1nnc2cc(-c3noc(-c4ccc(F)cc4)n3)ccc21)N1CCOCC1
766 s | Cc1cccc(-c2noc(-c3cccnc3N3CCN(c4ccc5c(c4)OCO5)CC3)n2)c1
881 s | Cc1c(N2CCN(C(=O)C3CCCCC3)CC2)c(=O)n(C)c(=O)n1-c1ccccc1
1110 s | O=C(c1ccc(-c2nccnc2N2CCCC2)cc1)N1CCC(Cc2ccccc2)CC1
856 s | CC(C)CCNC(=O)Cn1c(=O)c2cccn2c2ccc(F)cc21
580 s | CN1CCN(C(=O)C2CCN(S(=O)(=O)c3cc4c(cc3Cl)NC(=O)CO4)CC2)CC1
689 s | Cc1ccc(C)c(S(=O)(=O)N2CC(N(C(=O)NC(C)C)C3CCOCC3)C2)c1
996 s | Cc1cccc(-c2noc(Cn3cnc4c(oc5ccccc54)c3=O)n2)c1
796 s | O=C(C1CCCCC1)N1CCN(CC(F)(F)F)CC1
876 s | COc1ccc(NC(=O)N2CCCC2c2nc(-c3ccc(OC)cc3)no2)cc1 (stereo not drawn)

RP-LC retention time | Compound
797 s | O=C(Nc1cnn(-c2ncncc2N2CCCC2)c1)c1cccc(C(F)(F)F)c1
722 s | Cc1ccc(C)c(NC(=O)Cn2nc3n(c2=O)CCCCC3)c1
752 s | O=C(Cc1nnc(-c2ccc3ncccc3c2)o1)NCc1ccc(F)cc1Cl
927 s | Cc1nc(-c2csc(S(=O)(=O)N3CCCC(C(=O)Nc4ccccc4)C3)c2)no1 (stereo not drawn)
796 s | Cc1ccccc1-c1noc(N2CCC(C(=O)N3CCOCC3)CC2)n1
1430 s | Cc1cc(C)c(S(=O)(=O)N2CCC(c3noc(-c4ccccc4C)n3)CC2)c(C)c1
632 s | Cc1nnc(N2CCC(C(=O)NCC3CCCO3)CC2)c2nn(-c3ccccc3)c(C)c12 (stereo not drawn)
803 s | CCOc1ccc(CC(=O)NC2CCN(c3cc(-c4ccc(Cl)cc4)[nH]n3)C2)cc1OCC (stereo not drawn)
887 s | CN1C(=O)c2cc(C(=O)Nc3ccccc3Cl)nn2CC1(C)C(=O)NC1CCCCC1 (stereo not drawn)
899 s | COCCOC(=O)C1=C(C)NC2=C(C(=O)C(C(=O)OC)C(C)C2)C1c1cccc(Cl)c1 (stereo not drawn)
762 s | O=C(Nc1cccnc1)C1CCN(S(=O)(=O)c2cc(-c3noc(C4CCC4)n3)cs2)CC1
708 s | O=C(NCc1ccco1)c1ccc(-c2ccc(N3CCSCC3)nc2)cc1
614 s | CCCNC(=O)C1CCN(c2ccc(SCC(=O)Nc3c(F)cccc3F)nn2)CC1
752 s | CN1CCN(CC/C=C2/c3ccccc3Sc3ccc(S(=O)(=O)N(C)C)cc32)CC1
870 s | CCOc1ccc(NC(=O)Cn2nc3c(Oc4ccccc4C)nccn3c2=O)cc1
889 s | NS(=O)(=O)c1cccnc1Nc1cccc(Br)c1
629 s | COCCN1CCC2(CC1)CN(Cc1cccc(F)c1)Cc1ccccc1O2
806 s | Cc1cc2c(cc1S(=O)(=O)N1CCCC1C(=O)NCc1ccc(Cl)cc1)OCC(=O)N2 (stereo not drawn)
620 s | O=C(Nc1ccc(F)cc1F)C1(CCO)CCN(Cc2ccccc2)C1 (stereo not drawn)
598 s | CC(C)N1CCc2c(sc(NC(=O)COc3ccc(Cl)cc3Cl)c2C(N)=O)C1
817 s | COc1ccc(-c2cc(N3CCC(NC(=O)C4(c5ccccc5)CC4)CC3)n[nH]2)cc1
664 s | COc1ccc(S(=O)(=O)Nc2cc(-c3cn4cccc(C)c4n3)ccc2C)cc1
